Experimental data from US12569563B2, “Selective HDAC6 degraders and methods of use thereof” (DANA-FARBER CANCER INSTITUTE, INC., priority 2019, dated 2026).

Target: T1, HDAC10 (Homo sapiens, UniProt Q969S8)
T1 construct: purchased Reaction Biology
T1 sequence (Q969S8 1-669): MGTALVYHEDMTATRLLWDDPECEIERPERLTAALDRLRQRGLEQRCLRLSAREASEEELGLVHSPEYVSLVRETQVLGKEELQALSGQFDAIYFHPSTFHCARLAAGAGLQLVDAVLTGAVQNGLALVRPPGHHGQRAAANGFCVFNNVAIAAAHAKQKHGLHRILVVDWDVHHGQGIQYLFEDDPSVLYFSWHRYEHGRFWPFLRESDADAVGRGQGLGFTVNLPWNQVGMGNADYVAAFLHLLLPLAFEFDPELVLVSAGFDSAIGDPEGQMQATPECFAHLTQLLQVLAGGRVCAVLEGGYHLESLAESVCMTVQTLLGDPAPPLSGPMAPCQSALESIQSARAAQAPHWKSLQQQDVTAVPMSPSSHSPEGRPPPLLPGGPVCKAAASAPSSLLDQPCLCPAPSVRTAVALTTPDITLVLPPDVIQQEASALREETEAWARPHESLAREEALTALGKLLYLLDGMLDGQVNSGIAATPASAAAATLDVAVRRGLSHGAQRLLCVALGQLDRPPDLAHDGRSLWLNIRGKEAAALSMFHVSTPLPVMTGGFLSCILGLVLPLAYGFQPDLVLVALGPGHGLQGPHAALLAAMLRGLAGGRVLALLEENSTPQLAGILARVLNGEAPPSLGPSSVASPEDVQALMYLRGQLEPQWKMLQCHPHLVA
Experiment: HDAC assay from Reaction Biology, fluorogenic substrate
Format: biochemical
Conditions: 10-dose response curve; read-out: Compound IC50 HDAC10
Experimental: Compounds 1 and 3 were tested in a HDAC assay from Reaction Biology® against 10 different HDACs.
Base Reaction buffer: 50 mM Tris-HCl, pH8.0, 137 mM NaCl, 2.7 mM KCl, and 1 mM MgCl2,
Add fresh: 1 mg/ml BSA, 1% DMSO
Fluorogenic HDAC General Substrate (HDAC1, HDAC2, HDAC3, HDAC6, HDAC10, and HDAC11): 50 μM, Arg-His-Lys-Lys(Ac)-AMC
• (HDAC8 only substrate: 50 μM, Arg-His-Lys(Ac)-Lys(Ac))-AMC Class2A Substrate (HDAC4, HDAC5, HDAC7, and HDAC9): Boc-Lys(trifluoroacetyl)-AMC For SIRTs 1-3, general Class1 HDAC substrate and 500 μM NAD+ For SIRT5, Ac-Lys-succ and 500 μM NAD+ Reaction Procedure Deacetylation Step • 1. Delivered 2× enzyme in wells of reaction plate except in the control wells and added buffer to control wells. • 2. Delivered compounds in 100% DMSO into the enzyme mixture by Acoustic technology (Echo550; nanoliter range). Spin down and pre-incubation. • 3. Delivered 2× Substrate Mixture (Fluorogenic HDAC Substrate and co-factor if applicable) in all reaction wells to initiate the reaction. Spin and shake. • 4. Incubated for 30 min for Class 2A, 1 hr for HDAC1, 2, 3, and 6, and 2 hr for the rest of HDACs and SIRTs at 30° C. with seal. Development Step • 5. Added Developer with Trichostatin A (or Nicotinamide for SIRTs) to stop the reaction and to generate fluorescent color. • 6. The fluorescence that was generated was detected with excitation (Ex) at […] and emission (Em) at 460 nM by the EnVision Multilabel Plate Reader (PerkinElmer®, Santa Clara, CA, USA). • 7. IC50 values, presented in Table 1, were derived from a 10-dose response curve.

IC50: 6.58 µM
SMILES: CN(C(=O)CCCCCCCNc1cccc2c1C(=O)N(C1CCC(=O)NC1=O)C2=O)c1ccc(NC(=O)CCCCCCC(=O)NO)cc1 (stereo not shown) [Compound 3, N^1-(4-(8-((2-(2,6-dioxopiperidin-3-yl)-1,3-dioxoisoindolin-4-yl)amino)-N-methyloctanamido)phenyl)-N^8-hydroxyoctanediamide]
